Values quoted from earlier work, collected in patent US10722545B2, “Compound and method for treatment of movement disorders” (priority 2018, dated 2020).

Columns and labels:
[1] = system: rat cortical neuron cultures; settings: for glutamate toxicity: isolated or synthetic cannabinoid; for NMDA, AMPA and kainate receptor mediated neurotoxicity: rat cortical neuron cultures, not affected by CB receptor antagonist
[2] = cyclic voltammetry and fenton reaction-based system
[3] = system: mice; settings: oral administration
[4] = system: neurons; settings: neuronal cultures
[5] = system: mutant hamster model of dystonia

SMILES: CCCCCc1cc(O)c2c(c1)OC(C)(C)[C@@H]1CCC(C)=C[C@@H]21 (relative stereo) [THC, (-)-Δ9-trans-tetrahydrocannabinol]
- glutamate toxicity [1]: prevented to some extent
- NMDA, AMPA and kainate receptor mediated neurotoxicity [1]: reduced
- antioxidant activity [2]: potent antioxidants
- inhibition of phenyl-p-benzoquinone-induced writhing [3]: least effective

SMILES: C=C(C)[C@@H]1CCC(C)=C[C@H]1c1c(O)cc(CCCCC)cc1O [CBD, cannabidiol]
- protective capacity against glutamate toxicity, head to head with other antioxidants ([1]; compared with alpha-tocopherol and ascorbate): superior to both alpha-tocopherol and ascorbate
- glutamate toxicity [1]: prevented to some extent
- NMDA, AMPA and kainate receptor mediated neurotoxicity [1]: reduced
- hydroperoxide toxicity in neurons [4]: reduce hydroperoxide toxicity
- antioxidant activity [2]: potent antioxidants
- inhibition of phenyl-p-benzoquinone-induced writhing [3]: most effective

SMILES: CCCCCc1cc(O)c2c(c1)OC(C)(C)c1ccc(C)cc1-2 [CBN, cannabinol]
- inhibition of phenyl-p-benzoquinone-induced writhing [3]: least effective

SMILES: Cc1c(C(=O)c2cccc3ccccc23)c2cccc3c2n1[C@H](CN1CCOCC1)CO3 [WIN55,212-2]
- antidystonic effects [5]: produces antidystonic effects
